Experiment: Coinfusion of carboplatin and gadolinium-DTPA into pig corona radiata (T1 MRI, LA-ICP-MS)
Assay type: in vivo
Conditions: carboplatin 0.03 mg/ml coinfused with 0.3% gadolinium-DTPA, CED
Description: Carboplatin infusions were undertaken into male Large White Landrace pigs weighing 45 kg using a cannula system developed in-house. Pig anaesthesia, head immobilisation and brain imaging were achieved as we have previously described White et al (2010). Infusions of 120 μl 0.03 mg/ml carboplatin mixed with 0.3% (6 μmol/l) Gadolinium-DTPA (Magnevist: Bayer Healthcare, Germany), were undertaken bilaterally into the corona radiata using a cannula composed of a length of fused silica (outer diameter 220 μm, inner diameter 150 μm) bonded to a glass Hamilton syringe. Except for the distal 3 mm, this fused silica tube was supported along its length by a series of zirconia tubes to ensure that it could be accurately inserted to target. Infusions were performed using the following regime: 0.5 μl/min for 5 min, 1 μl/min for 5 min, 2.5 μl/min for 5 min and then 5 μl/min for 20 min. This regime was employed in an attempt to minimise the occurrence of a sudden surge in pressure at the catheter tip due to elasticity in the infusion tubing. 120 μl was infused as this is the largest volume that we have previously infused into pig white matter without leakage into the ventricular system. Following infusion completion, the cannula was left in place for 10 min prior to being withdrawn slowly by hand. CSF leakage from the burr hole and cannula track was sealed with Cerebond prior to wound closure. […]

## Gadolinium-DTPA
  distribution in pig corona radiata (LA-ICP-MS): distributed over a larger volume of brain than carboplatin

From US20160136284A1, “GLIOMA TREATMENT” (priority 2012, published 2016)
